Blank lines part the entries; values can stand above or below the compound they belong to.
What was measured:
[1] = Cytotoxicity against human L02 cells assessed as reduction in cell viability incubated for 24 hrs by MTT assay; assay type: toxicity, cell-based
[2] = system: Mus musculus; test: Anti-hyperuricemic activity against hypoxanthine and oteracil potassium induced hyperuricemia in Kunming mouse model assessed as total bilirubin level at 5 mg/kg, IG administered daily (reference value: 12.05 +/- 4.92 uM); assay type: functional
[3] = target: Xanthine dehydrogenase/oxidase (Homo sapiens, UniProt P47989); test: Inhibition of xanthine oxidase (unknown origin) at 10 uM relative to control
Chain of Xanthine dehydrogenase/oxidase (P47989 whole entry): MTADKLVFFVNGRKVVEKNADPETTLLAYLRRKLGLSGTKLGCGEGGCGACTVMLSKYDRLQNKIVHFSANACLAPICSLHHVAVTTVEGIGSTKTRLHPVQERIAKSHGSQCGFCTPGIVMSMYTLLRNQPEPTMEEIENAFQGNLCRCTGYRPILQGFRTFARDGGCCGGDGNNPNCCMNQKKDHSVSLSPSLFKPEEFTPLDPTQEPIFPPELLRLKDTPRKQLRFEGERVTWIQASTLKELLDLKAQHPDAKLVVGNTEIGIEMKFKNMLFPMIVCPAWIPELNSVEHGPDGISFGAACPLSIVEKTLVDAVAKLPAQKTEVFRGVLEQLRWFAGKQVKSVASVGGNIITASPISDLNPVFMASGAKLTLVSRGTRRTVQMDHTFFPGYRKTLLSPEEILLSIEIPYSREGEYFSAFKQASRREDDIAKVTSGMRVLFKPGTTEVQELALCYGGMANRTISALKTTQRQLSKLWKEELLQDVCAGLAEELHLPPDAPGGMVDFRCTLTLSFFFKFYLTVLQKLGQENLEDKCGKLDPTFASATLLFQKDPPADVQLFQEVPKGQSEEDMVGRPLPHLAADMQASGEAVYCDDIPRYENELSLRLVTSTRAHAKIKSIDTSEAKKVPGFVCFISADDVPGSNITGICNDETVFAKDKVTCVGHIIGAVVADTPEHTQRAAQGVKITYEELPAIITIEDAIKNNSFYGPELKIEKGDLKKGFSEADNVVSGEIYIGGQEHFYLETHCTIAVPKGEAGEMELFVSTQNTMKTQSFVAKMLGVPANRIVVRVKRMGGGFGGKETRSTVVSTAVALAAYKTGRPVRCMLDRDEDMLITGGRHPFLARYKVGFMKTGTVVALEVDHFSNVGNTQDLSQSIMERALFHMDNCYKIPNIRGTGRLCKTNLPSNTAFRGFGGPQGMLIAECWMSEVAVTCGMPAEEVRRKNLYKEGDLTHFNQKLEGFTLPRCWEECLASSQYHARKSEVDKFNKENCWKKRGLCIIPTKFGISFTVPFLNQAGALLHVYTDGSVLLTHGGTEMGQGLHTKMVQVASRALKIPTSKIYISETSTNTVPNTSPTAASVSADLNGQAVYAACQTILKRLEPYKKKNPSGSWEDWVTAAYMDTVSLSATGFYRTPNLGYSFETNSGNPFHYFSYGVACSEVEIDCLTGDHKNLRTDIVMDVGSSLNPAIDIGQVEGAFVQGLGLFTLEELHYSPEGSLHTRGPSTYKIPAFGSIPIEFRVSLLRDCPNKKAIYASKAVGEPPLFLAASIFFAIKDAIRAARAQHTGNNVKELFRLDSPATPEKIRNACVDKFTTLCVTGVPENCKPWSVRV

[4] = system: Mus musculus; test: Anti-hyperuricemic activity against hypoxanthine and oteracil potassium induced hyperuricemia in Kunming mouse model assessed as creatinine level at 5 mg/kg, IG administered daily (reference value: 59.12 +/- 7.198 uM); assay type: functional
[5] = system: Mus musculus; test: Anti-hyperuricemic activity against hypoxanthine and oteracil potassium induced hyperuricemia in Kunming mouse model assessed as alanine aminotransferase level at 5 mg/kg, IG administered daily (reference value: 28.05 +/- 8.478 U/L); assay type: functional
[6] = system: Mus musculus; test: Anti-hyperuricemic activity against hypoxanthine and oteracil potassium induced hyperuricemia in Kunming mouse model assessed as uric acid level at 5 mg/kg, IG administered daily (reference value: 631.6 +/- 103.1 uM); assay type: functional
[7] = system: Mus musculus; test: Anti-hyperuricemic activity against hypoxanthine and oteracil potassium induced hyperuricemia in Kunming mouse model assessed as blood urea nitrogen level at 5 mg/kg, IG administered daily (reference value: 53.09 +/- 1.937 mg/dl); assay type: functional
[8] = AUC(0 to infinity) in rat at 3 mg/kg, po measured after 24 hrs; assay type: ADME, organism-based; set-up: dose 3 mg/kg, time 24 hrs, route po; conditions: in vivo
[9] = Cmax in rat at 1 mg/kg, iv measured after 24 hrs; assay type: ADME, organism-based; set-up: time 24 hrs, dose 1 mg/kg, route iv; conditions: in vivo
[10] = AUC(0 to infinity) in rat at 1 mg/kg, iv measured after 24 hrs; assay type: ADME, organism-based; set-up: dose 1 mg/kg, time 24 hrs, route iv; conditions: in vivo
[11] = AUC(0 to t) in rat at 1 mg/kg, iv measured after 24 hrs; assay type: ADME, organism-based; set-up: dose 1 mg/kg, time 24 hrs, route iv; conditions: in vivo
[12] = Elimination half life in rat at 3 mg/kg, po measured after 24 hrs; assay type: ADME, organism-based; conditions: in vivo, read-out: beta t1/2 (converted)
[13] = AUC(0 to t) in rat at 3 mg/kg, po measured after 24 hrs; assay type: ADME, organism-based; set-up: dose 3 mg/kg, time 24 hrs, route po; conditions: in vivo
[14] = Tmax in rat at 1 mg/kg, iv measured after 24 hrs; assay type: ADME, organism-based; conditions: in vivo
[15] = Tmax in rat at 3 mg/kg, po measured after 24 hrs; assay type: ADME, organism-based; conditions: in vivo
[16] = Cmax in rat at 3 mg/kg, po measured after 24 hrs; assay type: ADME, organism-based; set-up: time 24 hrs, dose 3 mg/kg, route po; conditions: in vivo
[17] = Oral bioavailability in rat at 3 mg/kg measured after 24 hrs; assay type: ADME, organism-based; conditions: in vivo
[18] = Volume of distribution in rat at 1 mg/kg, iv measured after 24 hrs; assay type: ADME, organism-based; conditions: in vivo
[19] = Elimination half life in rat at 1 mg/kg, iv measured after 24 hrs; assay type: ADME, organism-based; conditions: in vivo, read-out: beta t1/2 (converted)
[20] = Clearance in rat at 1 mg/kg, iv measured after 24 hrs; assay type: ADME, organism-based; conditions: in vivo

Structure (SMILES): CCCCS(=O)(=O)Oc1ccc(/C=C/C(=O)OCC(C)C)cc1OC
- CC50 at 24 h [1]: 63.8 µM

Structure (SMILES): COc1cc(/C=C/C(=O)OCC(C)C)ccc1OS(=O)(=O)c1ccc(Cl)cc1
- CC50 at 24 h [1]: 102 µM

Structure (SMILES): CCCCOC(=O)/C=C/c1ccc(OS(=O)(=O)CCCC)c(OC)c1
- CC50 at 24 h [1]: 115 µM

Structure (SMILES): CCCOC(=O)/C=C/c1ccc(OS(=O)(=O)c2ccc(Cl)cc2)c(OC)c1
- CC50 at 24 h [1]: 150 µM

Structure (SMILES): CCCCS(=O)(=O)Oc1ccc(/C=C/C(=O)OCCC)cc1OC
- CC50 at 24 h [1]: 61.8 µM

Structure (SMILES): COC(=O)/C=C/c1ccc(OS(=O)(=O)c2ccc(Cl)cc2)c(OC)c1
- CC50 at 24 h [1]: 99.5 µM

Structure (SMILES): CCCCS(=O)(=O)Oc1ccc(/C=C/C(=O)Nc2cccc(C)c2)cc1OC
- CC50 at 24 h [1]: 33.6 µM

Structure (SMILES): Oc1ncnc2[nH]ncc12 [ALLOPURINOL]
- Activity [2]: 10.36 µM
- inhibition at 10 µM [3]: 45.6%
- CC50 at 24 h [1]: 6.84 µM
- Activity [4]: 71.97 µM
- Activity [5]: 32.11 U/L
- Activity [6]: 309.2 µM
- Activity [7]: 43.64 mg/dL

Structure (SMILES): CCCCS(=O)(=O)Oc1ccc(/C=C/C(=O)Nc2ccccc2C)cc1OC
- CC50 at 24 h [1]: 56.1 µM

- AUC(0-inf) [8]: 1640 ng·h/mL
- Cmax [9]: 1930 ng/mL
- AUC(0-inf) [10]: 851 ng·h/mL
- AUC(0-t) at 24 h [11]: 847 ng·h/mL
- half-life [12]: 79.2 min
- AUC(0-t) at 24 h [13]: 1620 ng·h/mL
- Tmax [14]: 6 min
- Tmax [15]: 8.34 min
- Cmax [16]: 1030 ng/mL
- bioavailability [17]: 63.7%
- Vd [18]: 0.996 L/kg
- half-life [19]: 34.2 min
- clearance [20]: 19.8 mL/min/kg
Structure (SMILES): CCCCS(=O)(=O)Oc1ccc(/C=C/C(=O)OCC)cc1OC
- Activity [2]: 8.557 µM
- CC50 at 24 h [1]: 14.4 µM
- Activity [4]: 34.38 µM
- Activity [5]: 29.23 U/L
- Activity [6]: 295 µM
- Activity [7]: 30.48 mg/dL

Structure (SMILES): COc1cc(/C=C/C(=O)Nc2ccc(I)cc2)ccc1OS(=O)(=O)c1ccc(Cl)cc1
- CC50 at 24 h [1]: 39.4 µM

Structure (SMILES): CCCCOC(=O)/C=C/c1ccc(OS(=O)(=O)c2ccc(Cl)cc2)c(OC)c1
- CC50 at 24 h [1]: 14 µM

Structure (SMILES): CCCCS(=O)(=O)Oc1ccc(/C=C/C(=O)Nc2ccc(C)cc2)cc1OC
- CC50 at 24 h [1]: 26.8 µM

Structure (SMILES): COc1cc(/C=C/C(=O)Nc2cccc(C)c2)ccc1OS(=O)(=O)c1ccc(Cl)cc1
- Activity [2]: 8.296 µM
- CC50 at 24 h [1]: 73.5 µM
- Activity [4]: 45.88 µM
- Activity [5]: 25.21 U/L
- Activity [6]: 552.9 µM
- Activity [7]: 33.45 mg/dL

Structure (SMILES): CCCCS(=O)(=O)Oc1ccc(/C=C/C(=O)OC)cc1OC
- CC50 at 24 h [1]: 208 µM

Structure (SMILES): CCOC(=O)/C=C/c1ccc(OS(=O)(=O)c2ccc(Cl)cc2)c(OC)c1
- CC50 at 24 h [1]: 137 µM

Structure (SMILES): CCCCS(=O)(=O)Oc1ccc(/C=C/C(=O)Nc2ccc(Cl)cc2)cc1OC
- CC50 at 24 h [1]: 81.2 µM

Structure (SMILES): CCCCS(=O)(=O)Oc1ccc(/C=C/C(=O)Nc2ccc(CC)cc2)cc1OC
- CC50 at 24 h [1]: 89 µM

Structure (SMILES): CCCCS(=O)(=O)Oc1ccc(/C=C/C(=O)Nc2ccccc2Br)cc1OC
- CC50 at 24 h [1]: 5 µM

Structure (SMILES): CCCCS(=O)(=O)Oc1ccc(/C=C/C(=O)Nc2ccccc2I)cc1OC
- CC50 at 24 h [1]: 24.5 µM

Structure (SMILES): CCCCS(=O)(=O)Oc1ccc(/C=C/C(=O)Nc2ccccc2)cc1OC
- CC50 at 24 h [1]: 3.32 µM

From ChEMBL document CHEMBL5104148, “Discovery of derivatives from Spartina alterniflora-sourced moiety as xanthine oxidase inhibitors to lower uric acid” (Bioorg Med Chem Lett, 2022)
